Measured values: PMC12748989 (Nature Communications, 2025)

Experiments:
[1] = test system: PBMC; conditions: 12.5 µM
[2] = test system: MDA-MB-231 cells

Structure (SMILES) | Average (percentage cell inhibition), Mastoparan PBMC [1] | Average (percentage cell inhibition), Dmastoparan MDA-MB231 12.5uM [2]
CC[C@H](C)[C@H](N)C(=O)N[C@@H](CC(N)=O)C(=O)N[C@@H](CC(C)C)C(=O)N[C@@H](CCCCN)C(=O)N[C@@H](C)C(=O)N[C@@H](CC(C)C)C(=O)N[C@@H](C)C(=O)N[C@@H](C)C(=O)N[C@@H](CC(C)C)C(=O)N[C@@H](C)C(=O)N[C@@H](CCCCN)C(=O)N[C@@H](CCCCN)C(=O)N[C@H](C(=O)N[C@@H](C)C(N)=O)[C@@H](C)CC [A14] | 6.423% | 12.3553%
CC[C@H](C)[C@H](N)C(=O)N[C@@H](CC(N)=O)C(=O)N[C@@H](CC(C)C)C(=O)N[C@@H](CCCCN)C(=O)N[C@@H](C)C(=O)N[C@@H](CC(C)C)C(=O)N[C@@H](C)C(=O)N[C@@H](C)C(=O)N[C@@H](CC(C)C)C(=O)N[C@@H](C)C(=O)N[C@H](C(=O)N[C@@H](CCCCN)C(=O)N[C@H](C(=O)N[C@@H](CC(C)C)C(N)=O)[C@@H](C)CC)[C@@H](C)O [T11] | 10.2886% | 32.1267%
CC[C@H](C)[C@H](N)C(=O)N[C@@H](CC(N)=O)C(=O)N[C@@H](CC(C)C)C(=O)N[C@@H](CCCCN)C(=O)N[C@@H](C)C(=O)N[C@@H](CC(C)C)C(=O)N[C@@H](C)C(=O)N[C@@H](C)C(=O)N[C@@H](CC(C)C)C(=O)N[C@@H](C)C(=O)N[C@@H](CC(N)=O)C(=O)N[C@@H](CCCCN)C(=O)N[C@H](C(=O)N[C@@H](CC(C)C)C(N)=O)[C@@H](C)CC [N11] | 4.624% | 40.5108%
CC[C@H](C)[C@H](N)C(=O)N[C@@H](CC(N)=O)C(=O)N1CCC[C@H]1C(=O)N[C@@H](CCCCN)C(=O)N[C@@H](C)C(=O)N[C@@H](CC(C)C)C(=O)N[C@@H](C)C(=O)N[C@@H](C)C(=O)N[C@@H](CC(C)C)C(=O)N[C@@H](C)C(=O)N[C@@H](CCCCN)C(=O)N[C@@H](CCCCN)C(=O)N[C@H](C(=O)N[C@@H](CC(C)C)C(N)=O)[C@@H](C)CC [P3] | -5.207% | 17.7289%
CC[C@H](C)[C@H](N)C(=O)N[C@@H](CC(N)=O)C(=O)N[C@@H](CC(C)C)C(=O)N[C@@H](CCCCN)C(=O)N[C@@H](CCCCN)C(=O)N[C@@H](CC(C)C)C(=O)N[C@@H](C)C(=O)N[C@@H](C)C(=O)N[C@@H](CC(C)C)C(=O)N[C@@H](C)C(=O)N[C@@H](CCCCN)C(=O)N[C@@H](CCCCN)C(=O)N[C@H](C(=O)N[C@@H](CC(C)C)C(N)=O)[C@@H](C)CC [K5] | 10.3023% | 39.1552%
CC[C@H](C)[C@H](N)C(=O)N[C@@H](CC(N)=O)C(=O)N[C@@H](CC(C)C)C(=O)N[C@@H](CCCCN)C(=O)N[C@@H](C)C(=O)N[C@H](C(=O)N[C@@H](C)C(=O)N[C@@H](C)C(=O)N[C@@H](CC(C)C)C(=O)N[C@@H](C)C(=O)N[C@@H](CCCCN)C(=O)N[C@@H](CCCCN)C(=O)N[C@H](C(=O)N[C@@H](CC(C)C)C(N)=O)[C@@H](C)CC)[C@@H](C)O [T6] | 0.8912% | 9.306%
CC[C@H](C)[C@H](N)C(=O)N[C@@H](CC(N)=O)C(=O)N[C@@H](CC(C)C)C(=O)N[C@@H](CCCCN)C(=O)N[C@@H](C)C(=O)N[C@@H](CC(C)C)C(=O)N[C@@H](C)C(=O)N[C@@H](C)C(=O)N[C@@H](CC(C)C)C(=O)N[C@H](C(=O)N[C@@H](CCCCN)C(=O)N[C@@H](CCCCN)C(=O)N[C@H](C(=O)N[C@@H](CC(C)C)C(N)=O)[C@@H](C)CC)[C@@H](C)O [T10] | 8.853% | 27.2715%
CC[C@H](C)[C@H](N)C(=O)N[C@@H](CC(N)=O)C(=O)N[C@@H](CC(C)C)C(=O)N[C@@H](CCCCN)C(=O)N[C@@H](C)C(=O)N[C@@H](CC(C)C)C(=O)N[C@@H](C)C(=O)N[C@@H](CC(N)=O)C(=O)N[C@@H](CC(C)C)C(=O)N[C@@H](C)C(=O)N[C@@H](CCCCN)C(=O)N[C@@H](CCCCN)C(=O)N[C@H](C(=O)N[C@@H](CC(C)C)C(N)=O)[C@@H](C)CC [N8] | 16.8851% | 46.3177%
CC[C@H](C)[C@H](N)C(=O)N[C@@H](CC(N)=O)C(=O)N[C@@H](CC(C)C)C(=O)N[C@@H](CCCCN)C(=O)N[C@@H](C)C(=O)N[C@@H](CCCNC(=N)N)C(=O)N[C@@H](C)C(=O)N[C@@H](C)C(=O)N[C@@H](CC(C)C)C(=O)N[C@@H](C)C(=O)N[C@@H](CCCCN)C(=O)N[C@@H](CCCCN)C(=O)N[C@H](C(=O)N[C@@H](CC(C)C)C(N)=O)[C@@H](C)CC [R6] | -10.6069% | 11.7131%
CC[C@H](C)[C@H](N)C(=O)N[C@@H](CC(N)=O)C(=O)N[C@@H](CC(C)C)C(=O)N[C@@H](CCCCN)C(=O)N[C@@H](C)C(=O)N[C@@H](CC(C)C)C(=O)N[C@@H](C)C(=O)N[C@@H](C)C(=O)N[C@@H](CC(C)C)C(=O)N[C@@H](C)C(=O)N[C@@H](CCCCN)C(=O)N[C@H](C(=O)N[C@H](C(=O)N[C@@H](CC(C)C)C(N)=O)[C@@H](C)CC)C(C)C [V12] | 18.2596% | 51.0657%
CC[C@H](C)[C@H](N)C(=O)N[C@@H](CC(N)=O)C(=O)N[C@@H](CC(C)C)C(=O)N[C@@H](Cc1c[nH]cn1)C(=O)N[C@@H](C)C(=O)N[C@@H](CC(C)C)C(=O)N[C@@H](C)C(=O)N[C@@H](C)C(=O)N[C@@H](CC(C)C)C(=O)N[C@@H](C)C(=O)N[C@@H](CCCCN)C(=O)N[C@@H](CCCCN)C(=O)N[C@H](C(=O)N[C@@H](CC(C)C)C(N)=O)[C@@H](C)CC [H4] | -2.6725% | 21.387%
CC[C@H](C)[C@H](N)C(=O)N[C@@H](CC(N)=O)C(=O)N[C@@H](CC(C)C)C(=O)N[C@@H](CCCCN)C(=O)N[C@@H](C)C(=O)N[C@@H](CC(C)C)C(=O)N[C@@H](C)C(=O)N[C@@H](C)C(=O)N[C@@H](CC(C)C)C(=O)N[C@@H](C)C(=O)N[C@@H](CCCCN)C(=O)N[C@@H](Cc1c[nH]cn1)C(=O)N[C@H](C(=O)N[C@@H](CC(C)C)C(N)=O)[C@@H](C)CC [H12] | 0.5315% | 31.16%
CC[C@H](C)[C@H](N)C(=O)N[C@@H](CC(N)=O)C(=O)N[C@@H](CC(C)C)C(=O)N[C@@H](CCCCN)C(=O)N[C@@H](C)C(=O)N[C@@H](CC(C)C)C(=O)N[C@@H](C)C(=O)N[C@@H](C)C(=O)N[C@@H](CC(C)C)C(=O)N[C@@H](C)C(=O)N[C@@H](CCCCN)C(=O)N[C@@H](CCCCN)C(=O)N1CCC[C@H]1C(=O)N[C@@H](CC(C)C)C(N)=O [P13] | -11.6187% | -16.5854%
CC[C@H](C)[C@H](N)C(=O)N[C@@H](CC(N)=O)C(=O)N[C@@H](CC(C)C)C(=O)N[C@@H](CC(C)C)C(=O)N[C@@H](C)C(=O)N[C@@H](CC(C)C)C(=O)N[C@@H](C)C(=O)N[C@@H](C)C(=O)N[C@@H](CC(C)C)C(=O)N[C@@H](C)C(=O)N[C@@H](CCCCN)C(=O)N[C@@H](CCCCN)C(=O)N[C@H](C(=O)N[C@@H](CC(C)C)C(N)=O)[C@@H](C)CC [L4] | 15.2128% | 34.0791%
